Assay: Mouse urine: fluorescence of extracted urine after injection
Type: in vivo
Settings: mice, urine extracted with acetonitrile:methanol mix, imaged on Odyssey CLx imager
Excerpt: The urine is extracted with an acetonitrile:methanol mix and imaged on an Odyssey CLx imager (LI-COR Biosciences).

CC1(C)C(/C=C/C=C/C=C/C=C2\N(CCCCS(=O)(=O)O)c3ccc4ccccc4c3C2(C)C)=[N+](CCCCS(=O)(=O)[O-])c2ccc3ccccc3c21 [ICG, indocyanine green]
fluorescent signal in urine: No fluorescent signal
